How the values were obtained:
BACE2 = biological target: T1, BACE2 (Homo sapiens, UniProt Q9Y5Z0); experiment: BACE2 biochemical FRET based assay; conditions: recombinant BACE2, 450 minutes at room temperature, pH 5.0; for IC50: read-out: Biochemical FRET based assay pIC50 (converted)
T1 construct: recombinant BACE2 protein in a final concentration of 0.4 μg/ml
T1 sequence (Q9Y5Z0 63-518): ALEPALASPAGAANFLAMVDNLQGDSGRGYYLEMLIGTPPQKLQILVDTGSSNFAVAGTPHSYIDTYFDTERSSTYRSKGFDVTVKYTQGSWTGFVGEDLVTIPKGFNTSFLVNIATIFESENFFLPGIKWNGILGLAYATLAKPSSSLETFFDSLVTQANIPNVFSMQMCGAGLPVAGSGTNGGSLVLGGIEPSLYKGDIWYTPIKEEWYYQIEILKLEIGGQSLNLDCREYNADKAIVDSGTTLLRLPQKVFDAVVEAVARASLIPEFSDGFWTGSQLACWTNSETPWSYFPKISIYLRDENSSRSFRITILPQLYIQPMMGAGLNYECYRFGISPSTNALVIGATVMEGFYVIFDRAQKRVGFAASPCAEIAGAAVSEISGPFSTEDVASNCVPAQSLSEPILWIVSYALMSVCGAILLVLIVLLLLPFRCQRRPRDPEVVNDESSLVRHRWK
From the text: BACE2 Biochemical FRET Based Assay
(§1) This assay is a Fluorescence Resonance Energy Transfer Assay (FRET) based assay. The substrate for this assay contains the ‘Swedish’ Lys-Met/Asn-Leu mutation of the amyloid precursor protein (APP) beta-site APP-cleaving enzyme cleavage site. This substrate also contains two fluorophores: (7-methoxycoumarin-4-yl) acetic acid (Mca) is a fluorescent donor with excitation wavelength at 320 nm and emission at 405 nm and 2,4-Dinitrophenyl (Dnp) is a proprietary quencher acceptor. […] Upon cleavage by the beta-site APP-cleaving enzyme, the fluorophore Mca is separated from the quenching group Dnp, restoring the full fluorescence yield of the donor. The increase in fluorescence is linearly related to the rate of proteolysis.
Briefly in a 384-well format recombinant BACE2 protein in a final concentration of 0.4 μg/ml is incubated for 450 minutes at room temperature with 10 μM substrate in incubation buffer (50 mM Citrate buffer pH 5.0, 0.05% PEG, no DMSO) in the absence or presence of compound. Next the amount of proteolysis is directly measured by fluorescence measurement at T=0 and T=450 (excitation at 320 nm and emission at 405 nm). Results are expressed in RFU (Relative Fluorescence Units), as difference between T450 and T0.
(§2) A best-fit curve is fitted by a minimum sum of squares method to the plot of % Controlmin versus compound concentration. From this an IC50 value (inhibitory concentration causing 50% inhibition of activity) can be obtained.

BACE1 = biological target: T2, BACE1 (Homo sapiens, UniProt P56817); experiment: BACE1 biochemical FRET based assay; conditions: Method 1: recombinant BACE1 1 μg/ml, 120 min at room temperature, pH 5.0; for IC50: read-out: Biochemical FRET based assay pIC50 (converted)
T2 construct: recombinant BACE1 protein in a final concentration of 1 μg/ml
From the text: BACE1 Biochemical Fret Based Assay
as §1, with “this assay is an APP derived 13 amino acids peptide that contains the” for “this assay contains the”, “cleavage by BACE1, the fluorophore” for “cleavage by the beta-site APP-cleaving enzyme, the fluorophore”
Briefly in a 384-well format recombinant BACE1 protein in a final concentration of 1 μg/ml is incubated for 120 minutes at room temperature with 10 μm substrate in incubation buffer (40 mM Citrate buffer pH 5.0, 0.04% PEG, 4% DMSO) in the absence or presence of compound. Next the amount of proteolysis is directly measured by fluorescence measurement at T=0 and T=120 (excitation at 320 nm and emission at 405 nm). Results are expressed in RFU (Relative Fluorescence Units), as difference between T120 and T0.
as §2

[1] = tested on: Abeta 1-42 produced and secreted into the medium of human neuroblastoma SKNBE2 cells; experiment: Cellular αLisa assay in SKNBE2 cells; type: cell-based; conditions: human neuroblastoma SKNBE2 cells expressing hAPP695, 18 hours incubation; for IC50: Homo sapiens, SKNBE2, 18 h, read-out: Cellular αLisa assay in SKNBE2 cells Abeta 42 pIC50 (converted)
Protocol: Cellular αLisa Assay in SKNBE2 Cells
In two αLisa assays the levels of Abeta 1-42 produced and secreted into the medium of human neuroblastoma SKNBE2 cells are quantified. The assay is based on the human neuroblastoma SKNBE2 expressing the wild type Amyloid Precursor Protein (hAPP695). The compounds are diluted and added to these cells, incubated for 18 hours and then measurements of Abeta 1-42 are taken. Abeta 1-42 are measured by sandwich αLisa. αLisa is a sandwich assay using biotinylated antibody AbN/25 attached to streptavidin coated beads and antibody cAb42/26 conjugated acceptor beads for the detection of Abeta 1-42 respectively. In the presence of Abeta 1-42, the beads come into close proximity. The excitation of the donor beads provokes the release of singlet oxygen molecules that trigger a cascade of energy transfer in the acceptor beads, resulting in light emission. Light emission is measured after 1 hour incubation (excitation at […] and emission at 615 nm).
as §2

T2 sequence (P56817 46-501): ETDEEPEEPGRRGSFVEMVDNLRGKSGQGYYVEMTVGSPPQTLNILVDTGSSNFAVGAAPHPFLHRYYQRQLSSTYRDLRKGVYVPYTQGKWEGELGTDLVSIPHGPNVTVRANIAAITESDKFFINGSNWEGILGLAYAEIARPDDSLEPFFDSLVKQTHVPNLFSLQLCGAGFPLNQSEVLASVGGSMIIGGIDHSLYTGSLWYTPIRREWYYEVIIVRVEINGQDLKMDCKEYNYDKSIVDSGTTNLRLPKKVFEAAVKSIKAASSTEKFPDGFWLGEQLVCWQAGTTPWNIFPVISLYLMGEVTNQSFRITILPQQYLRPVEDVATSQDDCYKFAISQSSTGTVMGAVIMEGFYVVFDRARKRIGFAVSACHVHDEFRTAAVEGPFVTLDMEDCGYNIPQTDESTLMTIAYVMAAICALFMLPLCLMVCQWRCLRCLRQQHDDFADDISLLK

Row | IC50 (BACE2) [nM] | IC50 (BACE1) [nM] | IC50 [1] [nM] | Cellular αLisa assay in SKNBE2 cells Abeta 42 pIC50 [1] | Biochemical FRET based assay pIC50 (BACE2) | Biochemical FRET based assay pIC50 (BACE1) | Compound
1 | 708 | 10.5 | 19.5 | – | – | – | CC(C)(F)[C@H]1OC[C@]2(c3cc(NC(=O)c4ccc(C#N)cn4)ccc3F)N=C(N)[C@@](C)(C#N)C[C@H]12 [21b]
2 | 9550 | 309 | – | 5.97 | – | – | CC1OCC2(c3cc(NC(=O)c4cnc(-n5cncn5)cn4)cc(F)c3F)N=C(N)C(C)(C#N)CC12 (single isomer, unassigned) [32b]
3 | – | – | – | 8.17 | 8.46 | 8.75 | C[C@@]1(C#N)C[C@@H]2[C@@H](C(F)(F)F)OC[C@]2(c2cc(NC(=O)c3ncc(Cl)cn3)ccc2F)N=C1N [8c]
4 | – | – | – | 8.74 | 7.19 | 8.28 | C[C@H]1OC[C@]2(c3cc(NC(=O)c4cnc(OCF)cn4)ccc3F)N=C(N)[C@](C)(C#N)C[C@H]12 (single isomer, unassigned) [9b]
5 | > 10000 | > 10000 | – | <5.05 | – | – | CC1OCC2(c3cc(NC(=O)c4cnc(OCF)cn4)cc(F)c3F)N=C(N)C(C)(C#N)CC12 (single isomer, unassigned) [31d]
6 | – | – | – | 5.14 | <5 | 5.12 | C[C@@H]1OC[C@@]2(c3cc(NC(=O)c4ccc(C#N)cn4)ccc3F)N=C(N)[C@](C)(C#N)C[C@@H]12 [6c]
7 | – | – | – | 8.23 | 8.28 | 8.25 | C[C@H]1OC[C@]2(c3cc(NC(=O)c4ccc(F)cn4)ccc3F)N=C(N)[C@](C)(C#N)C[C@H]12 (single isomer, unassigned) [10b]
8 | – | – | – | 7.46 | 6.17 | 7.06 | COc1cnc(C(=O)Nc2ccc(F)c([C@]34CO[C@H](C)[C@H]3C[C@](C)(C#N)C(N)=N4)c2)cn1 [5b]
9 | – | – | – | 5.75 | <5 | 5.48 | COc1cnc(C(=O)Nc2ccc(F)c([C@@]34CO[C@@H](C)[C@@H]3C[C@@](C)(S(C)(=O)=O)C(N)=N4)c2)cn1 (single isomer, unassigned) [13b]
10 | – | – | – | 5.43 | <5 | 5.74 | C[C@@]1(C#N)C[C@H]2[C@H](C(F)(F)F)OC[C@@]2(c2cc(NC(=O)c3cnc(OCF)cn3)ccc2F)N=C1N [7f]
11 | > 10000 | 1550 | – | 5.62 | – | – | CC1OCC2(c3cc(NC(=O)c4cnc(-n5cncn5)cn4)ccc3F)N=C(N)C(C)(C#N)CC12 (single isomer, unassigned) [15b]
12 | – | – | – | 5.29 | <5 | 5.01 | C[C@@H]1OC[C@@]2(c3cc(NC(=O)c4ccc(F)cn4)ccc3F)N=C(N)[C@@](C)(C#N)C[C@@H]12 (single isomer, unassigned) [10c]
13 | – | – | – | 8.32 | 8.3 | 8.73 | C[C@@]1(C#N)C[C@@H]2[C@@H](C(F)(F)F)OC[C@]2(c2cc(NC(=O)c3ccc(F)cn3)ccc2F)N=C1N [2c]
14 | – | – | – | 6.21 | 5.41 | 6.05 | COc1cnc(C(=O)Nc2ccc(F)c([C@@]34CO[C@@H](C)[C@@H]3C[C@](C)(S(C)(=O)=O)C(N)=N4)c2)cn1 (single isomer, unassigned) [13c]
15 | 347 | 19.1 | – | 7.51 | – | – | CC1OCC2(c3cc(NC(=O)c4cnc(-n5cncn5)cn4)cc(F)c3F)N=C(N)C(C)(C#N)CC12 (single isomer, unassigned) [32a]
16 | 141 | 8.91 | – | 7.74 | – | – | CC1(C#N)CC2C(C(F)F)OCC2(c2cc(NC(=O)c3cnc(OCF)cn3)ccc2F)N=C1N (single isomer, unassigned) [25a]
17 | 158 | 7.41 | – | 8.19 | – | – | CC1OCC2(c3cc(NC(=O)c4cnc(-n5cncn5)cn4)ccc3F)N=C(N)C(C)(C#N)CC12 (single isomer, unassigned) [15a]
18 | – | – | – | 8.58 | 6.88 | 8.53 | N#Cc1ccc(C(=O)Nc2ccc(F)c([C@]34CO[C@H](C(F)(F)F)[C@H]3CCC(N)=N4)c2)nc1 [11a]
19 | – | – | – | 8.1 | 6.88 | 8.33 | C[C@]1(C#N)C[C@@H]2[C@@H](C(F)(F)F)OC[C@]2(c2cc(NC(=O)c3ccc(C#N)cn3)ccc2F)N=C1N [3f]
20 | > 10000 | 8710 | – | <5.05 | – | – | CC1OCC2(c3cc(NC(=O)c4cnc(OCF)cn4)cc(F)c3F)N=C(N)C(C)(C#N)CC12 (single isomer, unassigned) [31b]
21 | 355 | 12.3 | 25.7 | – | – | – | C[C@@]1(C#N)C[C@@H]2[C@@H](CF)OC[C@]2(c2cc(NC(=O)c3cnc(-n4cncn4)cn3)ccc2F)N=C1N [23a]
22 | 2400 | 66.1 | – | 7.15 | – | – | CC1OCC2(c3cc(NC(=O)c4cnc(OCF)cn4)cc(F)c3F)N=C(N)C(C)(C#N)CC12 (single isomer, unassigned) [31a]
23 | – | – | – | 6.22 | 5.27 | 6.28 | C[C@@H]1OC[C@@]2(c3cc(NC(=O)c4ccc(C#N)cn4)ccc3F)N=C(N)[C@@](C)(C#N)C[C@@H]12 [4c]
24 | – | – | – | 5.32 | <5 | 5.97 | C[C@]1(C#N)C[C@H]2[C@H](C(F)(F)F)OC[C@@]2(c2cc(NC(=O)c3cnc(OCF)cn3)ccc2F)N=C1N [7c]
25 | 158 | 15.5 | – | 7.57 | – | – | CC1OCC2(c3cc(NC(=O)c4cnc(OCF)cn4)cc(F)c3F)N=C(N)C(C)(C#N)CC12 (single isomer, unassigned) [31c]
